Assay: Evaluation of stability in liver microsome
Conditions: mouse liver microsome 0.25 mg/mL, test compound 1 μM, 37° C., 30 minutes
Protocol: Solutions of the test compounds in DMSO/acetonitrile (the final concentration of each test compound was 1 μM, the final concentration of DMSO was 0.01%, and the final concentration of acetonitrile was 1%) were individually added to a liver microsome mixture solution (mouse liver microsome with a final concentration of 0.25 mg/mL, a potassium phosphate buffer with a final concentration of 100 mM, and magnesium chloride with a final concentration of 3 mM), and each mixture was pre-incubated at 37° C. for 5 minutes. […] After incubation at 37° C. for 30 minutes, a double amount of ethanol was added thereto to terminate the reaction, thereby obtaining post-reaction samples. A double amount of ethanol was added to each of the remaining mixture solutions, and a NADPH-generating system was further added thereto, thereby obtaining pre-reaction samples. The pre-reaction samples and post-reaction samples were centrifuged at 2000×g, and their supernatant was filtered through a glass filter. Each filtrate was then introduced into LC-MS/MS, and MS/MS peaks of the test compounds were detected. From the ratio of the post-reaction MS/MS peak to the pre-reaction MS/MS peak of the test compounds, the percentage of the remaining test compounds (remaining %) was calculated.

| SMILES | Remaining (%) |
| --- | --- |
| COCc1ccc(NC(=O)c2c(C#Cc3cncnc3)n(C3(C)CC3)c3ncnc(N)c23)cc1 [Example 196, 4-amino-N-(4-(methoxymethyl)phenyl)-7-(1-methylcyclopropyl)-6-(pyrimidin-5-ylethynyl)-7H-pyrrolo[2,3-d]pyrimidine-5-carboxamide] | 53% |
| COCc1ccc(NC(=O)c2c(-c3ccc(F)nc3)n(C3(C)CC3)c3ncnc(N)c23)cc1 [Example 190, 4-amino-6-(6-fluoropyridin-3-yl)-N-(4-(methoxymethyl)phenyl)-7-(1-methylcyclopropyl)-7H-pyrrolo[2,3-d]pyrimidine-5-carboxamide] | 58% |
| COCc1ccc(NC(=O)c2c(C#Cc3ccc4c(c3)NCCO4)n(C3(C)CC3)c3ncnc(N)c23)cc1 [Example 158, 4-amino-6-((3,4-dihydro-2H-benzo[b][1,4]oxazin-6-yl)ethynyl)-N-(4-(methoxymethyl)phenyl)-7-(1-methylcyclopropyl)-7H-pyrrolo[2,3-d]pyrimidine-5-carboxamide] | 85% |
| COCc1ccc(NC(=O)c2c(C#CCN(C)C)n(C3(C)CC3)c3ncnc(N)c23)cc1 [Example 198, 4-amino-6-(3-(dimethylamino)prop-1-yn-1-yl)-N-(4-(methoxymethyl)phenyl)-7-(1-methylcyclopropyl)-7H-pyrrolo[2,3-d]pyrimidine-5-carboxamide] | 57% |
| COCc1ccc(NC(=O)c2c(C#Cc3ccc(N)nc3)n(C3(C)CC3)c3ncnc(N)c23)cc1 [Example 155, 4-amino-6-((6-aminopyridin-3-yl)ethynyl)-N-(4-(methoxymethyl)phenyl)-7-(1-methylcyclopropyl)-7H-pyrrolo[2,3-d]pyrimidine-5-carboxamide] | 64% |
| CCOc1c(C(=O)Nc2ccc(COC)cc2)c2c(N)ncnc2n1C1(C)CC1 [Example 127, 4-amino-6-ethoxy-N-(4-(methoxymethyl)phenyl)-7-(1-methylcyclopropyl)-7H-pyrrolo[2,3-d]pyrimidine-5-carboxamide] | 70% |
| COCc1ccc(NC(=O)c2c(C#Cc3cnc4[nH]ccc4c3)n(C3(C)CC3)c3ncnc(N)c23)cc1 [Example 128, 6-((1H-pyrrolo[2,3-b]pyridin-5-yl)ethynyl)-4-amino-N-(4-(methoxymethyl)phenyl)-7-(1-methylcyclopropyl)-7H-pyrrolo[2,3-d]pyrimidine-5-carboxamide] | 82% |
| COCc1ccc(NC(=O)c2c(C#Cc3ccn(C)n3)n(C3(C)CC3)c3ncnc(N)c23)cc1 [Example 92, 4-amino-N-(4-(methoxymethyl)phenyl)-6-((1-methyl-1H-pyrazol-3-yl)ethynyl)-7-(1-methylcyclopropyl)-7H-pyrrolo[2,3-d]pyrimidine-5-carboxamide] | 67% |
| COCc1ccc(NC(=O)c2c(C#Cc3csc(C)n3)n(C3(C)CC3)c3ncnc(N)c23)cc1 [Example 126, 4-amino-N-(4-(methoxymethyl)phenyl)-7-(1-methylcyclopropyl)-6-((2-methylthiazol-4-yl)ethynyl)-7H-pyrrolo[2,3-d]pyrimidine-5-carboxamide] | 69% |
| COCc1ccc(NC(=O)c2c(C#CCC(C)O)n(C3(C)CC3)c3ncnc(N)c23)cc1 (centres unmarked) [Example 188, 4-amino-6-(4-hydroxypent-1-yn-1-yl)-N-(4-(methoxymethyl)phenyl)-7-(1-methylcyclopropyl)-7H-pyrrolo[2,3-d]pyrimidine-5-carboxamide] | 68% |
| COCc1ccc(NC(=O)c2c(OC[C@H]3CCCO3)n(C3(C)CC3)c3ncnc(N)c23)cc1 [Example 89, (R)-4-amino-N-[4-(methoxymethyl)phenyl]-7-(1-methylcyclopropyl)-6-((tetrahydrofuran-2-yl)methoxy)-7H-pyrrolo[2,3-d]pyrimidine-5-carboxamide] | 69% |
